This is an account of results in paper PMC11419154 (bioRxiv, 2024).

Entries after “also recorded” stand apart in the source; their conditions may differ.

Holding throughout (type): cell-based, Drosophila melanogaster
Experiment [1] concerns class III dendritic arborizing (cIII da) neurons. As to the kind of experiment: Confocal GCaMP6f calcium imaging in larval cIII da neurons. The note with it: AITC application at time 0 s; n = 12 neurons.
Experiment [2] concerns Pickpocket (ppk RNAi in cIV da neurons). As to the kind of experiment: Calcium imaging in cIV da neurons with ppk RNAi. The note with it: versus attP genetic control; n = 6 neurons.
The test system of experiment [3] is Balboa (bba RNAi in cIV da neurons). As to the kind of experiment: Calcium imaging in cIV da neurons with bba RNAi. The note with it: versus attP2 genetic control; n = 6 neurons.
For a further experiment, the system named is dTRPA1-C. As to the kind of experiment: Calcium imaging in cIII da neurons expressing dTRPA1-C. The note with it: AITC application at time 0 s; n = 12 neurons.
The subject of another experiment is dTRPA1-D. As to the kind of experiment: Calcium imaging in cIII da neurons expressing dTRPA1-D. The note with it: AITC application at time 0 s; n = 12 neurons.

`C=CCN=C=S` [AITC, allyl isothiocyanate]: the “Calcium response of cIII da neurons, AITC” value in experiment [1] is on record as “do not activate strongly in response to AITC”. For the same compound, the “Calcium response with ppk RNAi, AITC” value in experiment [2] was “did not strongly affect their responses to AITC; also recorded: respond to AITC similarly as genetic controls”. Further, the “Calcium response with bba RNAi, AITC” value in experiment [3] is “did not strongly affect their responses to AITC; also recorded: respond to AITC similarly as genetic controls”. In addition, in the experiment on dTRPA1-C, the “Calcium response of cIII da neurons expressing dTRPA1-C, AITC” value is “renders them responsive to AITC; also recorded: rendered them sensitive to AITC”. Also, the “Calcium response of cIII da neurons expressing dTRPA1-D, AITC” value with dTRPA1-D is recorded as “renders them responsive to AITC; also recorded: rendered them sensitive to AITC”.
